Laboratory results as given in patent US4443466A, “4-Benzyl- and 4-benzoyl-substituted imidazole derivatives and use as medicaments” (priority 1980, dated 1984).
Read-outs that look alike come from different tables or passages of the source.

Key:
[1] = system: acetic acid-induced writhing; assay: Writhing test (acetic acid); type: in vivo, rat;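 for Analgesic activity: ++ means marked effect and + means moderate effect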
Description: (§1) The analgesic activity of the compounds of formula (I) was tested in the following manner: […]
The compounds studied and saline were administered p.o. to rats. Forty-five minutes later, 1 ml of 1% acetic acid was administered i.p. The number of writhes was recorded in the following 25 minute period (Koster et al: Fed. Proc. 18:412, 1959).

[2] = system: carrageenan-induced oedema; assay: Inhibition of carrageenan-induced oedema; type: in vivo, rat; conditions: for inhibition in vivo at 100 mg/kg: po, read-out: inhibition carrageenan-induced oedema (%);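 for Anti-inflammatory activity: ++ means marked effect and + means moderate effect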
Description: The anti-inflammatory activity of the compounds of the invention was determined by inhibition of the carrageenan induced oedema in rats by the compounds examined (Winter C. A. et al., Proc. Soc. Exp. Biol. Med. 111:544, 1962).

[3] = system: anesthetized Sprague-Dawley rats (blood pressure, pulse frequency); assay: Blood pressure and pulse frequency in anesthetized normal-weight Sprague-Dawley rats (i.v.); type: in vivo, rat (Sprague-Dawley); conditions: for minimal effective dose: Rattus norvegicus, iv; for anti-hypertensive effect: tested as above
Description: The anti-hypertensive properties of the imidazole derivatives of the present invention have been determined according to the following procedure. Sprague-Dawley rats of normal weight were first anesthetized with urethane. After this, the femoral artery was connected by way of a polyethylene tube with a blood pressure transducer. The test substance was then injected into the femoral vein and the blood pressure and the pulse frequency were registered with a recorder. The minimum doses producing a significant change were found, i.e. ± at least 20% in the case of blood pressure, and ± at least 3% in the case of pulse frequency.

[4] = system: indomethacin-induced ulcers; assay: Preventive effect on formation of indomethacin-induced ulcers; type: in vivo, rat (female Sprague-Dawley); conditions: for ED50: Rattus norvegicus, ip, 4 h, read-out: ED50 (ulcer prevention)
[5] = Acute toxicity in female NMRI mice, i.v.; conditions: in vivo, iv, mouse
Description: Acute toxicity was determined by using female mice of NMRI-Strain with an age of about 7 months and weighing 30-40 g. The administration of the test compound was i.v.

[6] = Preventive effect on formation of indomethacin-induced ulcers; type: in vivo, rat (female Sprague-Dawley); conditions: rat, in vivo, iv; LD50 (mouse, i.v.) / ED50 (ulcer); read-out: Therapeutic Index
[7] = system: male mice on a 55° C. hot plate; assay: Hot plate test; type: in vivo, mouse (male); conditions: for Analgesic activity: 1.5 mg/kg; for change in vivo at 1.5 mg/kg: Mus musculus, ip, 0.5 h, 1.5 mg/kg i.p., read-out: increase in HP-time (%)
Description: as §1
Test compounds or saline were given i.p. to male mice. Thirty minutes thereafter, the time for which the mice remained on a 55° C. plate was recorded. The results are expressed as compared to saline.

[8] = read-out: Blood Pressure Minimum Dose having a significant lowering effect
[9] = read-out: Pulse frequency Minimum Dose having a significant lowering effect

Row | SMILES | Anti-inflammatory activity ([2]; 100 mg/kg p.o. in the rat) | LD50 [5] [mg/kg] | Analgesic activity ([1]; 100 mg/kg) | W-number ([1]; 100 mg/kg p.o.) | inhibition in vivo at 100 mg/kg ([2]; Rattus norvegicus) [%] | further results
1 | Cc1ccccc1Cc1nc[nH]c1C [5-methyl-4-(2'-methylbenzyl)imidazole, 5-Methyl-4-(2'-methylbenzyl)imidazole] | + |  |  |  |  | Analgesic activity ([1]; 30 mg/kg): +; W-number ([1]; 30 mg/kg p.o.): 43; inhibition in vivo at 100 mg/kg ([2]; 100 mg/kg p.o. in the rat): 44%
2 | CCc1cccc(CC)c1C(O)c1c[nH]cn1 (stereo not drawn) [4-[α-(2',6'-diethylphenyl)]hydroxymethylimidazole] |  |  |  |  |  | minimal effective dose [3, 8]: 0.3 to 1 mg/kg; minimal effective dose [3, 9]: 0.3 to 1 mg/kg
3 | Cc1cccc(C)c1C(=O)c1c[nH]cn1 [4-(2',6'-dimethylbenzoyl)imidazole, 4-(2',6'-Dimethylbenzoyl)imidazole] |  | > 100 |  |  |  | prevention of the formation of ulcers ([4]; 10 mg/kg): prevented them partially; prevention of the formation of ulcers ([4]; 20 mg/kg): prevented completely the formation of ulcers; anti-hypertensive effect [3]: only a very slight anti-hypertensive effect
4 | Cc1ccccc1Cc1c[nH]cn1 [4-(2'-methylbenzyl)imidazole, 4-(2'-Methylbenzyl)imidazole] |  | 25 |  |  |  | selectivity ratio [6]: 5000; prevention of the formation of ulcers ([4]; 5 μg/kg i.p.): complete prevention of the formation of ulcers; ED50 [4]: 0.005 mg/kg; lowering of blood pressure ([3]; 0.5 mg/kg i.v., 30 minutes after administration): 10%; minimal effective dose [3, 8]: 0.01 to 0.1 mg/kg; minimal effective dose [3, 9]: 0.1 to 1 mg/kg; Analgesic activity [7]: +; change in vivo at 1.5 mg/kg [7]: 200%
5 | COc1cccc(C(O)c2c[nH]cn2)c1 (stereo not drawn) [4-[α-(3'-Methoxyphenyl)]hydroxymethylimidazole] | ++ |  | ++ | 0 | 71 | 
6 | CCOC(c1c[nH]cn1)c1c(C)cccc1C (stereo not drawn) [4-[α-(2',6'-Dimethylphenyl)]ethoxymethylimidazole] | + | 45 | ++ | 0.6 | 35 | prevention of the formation of ulcers ([4]; 0.5 mg/kg): prevented them partly; prevention of the formation of ulcers ([4]; 5 mg/kg): completely prevented the formation of ulcers; anti-hypertensive effect [3]: only a very slight anti-hypertensive effect
7 | Cc1cccc(C)c1Cc1nc[nH]c1C [5-Methyl-4-(2',6'-dimethylbenzyl)imidazole] |  | 27 |  |  |  | prevention of the formation of ulcers ([4]; 0.5 mg/kg): partly prevented the formation of ulcers; prevention of the formation of ulcers ([4]; 5 mg/kg): prevented them completely; anti-hypertensive effect [3]: no anti-hypertensive effect was found
8 | Cc1ccc(Cc2c[nH]cn2)c(C)c1 [4-(2',4'-dimethylbenzyl)imidazole, 4-(2',4'-Dimethylbenzyl)imidazole] | ++ | 65 | ++ | 0 | 76 | selectivity ratio [6]: 2170; ED50 [4]: 0.03 mg/kg; Analgesic activity [7]: +; change in vivo at 1.5 mg/kg [7]: 200%
9 | Cc1ccccc1C(O)c1nc[nH]c1C (stereo not drawn) [5-Methyl-4-[α-(2'-methylphenyl)]hydroxymethylimidazole] | + |  |  |  |  | inhibition in vivo at 100 mg/kg ([2]; 100 mg/kg p.o. in the rat): 67%
10 | Cc1cccc(C(O)c2c[nH]cn2)c1C (stereo not drawn) [4-[α-(2',3'-Dimethylphenyl)]hydroxymethylimidazole] | + |  | ++ | 0 | 52 | Analgesic activity [7]: ++; change in vivo at 1.5 mg/kg [7]: 400%
11 | Cc1cccc(C)c1C(O)c1nc[nH]c1C (stereo not drawn) [5-Methyl-4-[α-(2',6'-dimethylphenyl)]hydroxymethylimidazole] | + |  | + | 13 |  | inhibition in vivo at 100 mg/kg ([2]; 100 mg/kg p.o. in the rat): 52%
12 | Cc1cccc(C(O)c2c[nH]cn2)c1 (stereo not drawn) [4-[α-(3'-Methylphenyl)]hydroxymethylimidazole] | + |  | ++ | 0 | 34 | 
13 | CCc1cccc(CC)c1Cc1c[nH]cn1 [4-(2',6'-diethylbenzyl)imidazole] |  |  |  |  |  | minimal effective dose [3, 8]: 0.03 to 0.2 mg/kg; minimal effective dose [3, 9]: 0.03 mg/kg
14 | Cc1ccc(C(=O)c2c[nH]cn2)cc1 [4-(4'-methylbenzoyl)imidazole, 4-(4'-Methylbenzoyl)imidazole] | + |  |  |  |  | inhibition in vivo at 100 mg/kg ([2]; 100 mg/kg p.o. in the rat): 40%
15 | Cc1ccc(C(O)c2c[nH]cn2)cc1 (stereo not drawn) [4-[α-(4'-Methylphenyl)]hydroxymethylimidazole] | + |  | ++ | 0.6 | 38 | 
16 | Cc1ccccc1C(=O)c1nc[nH]c1C [5-methyl-4-(2'-methylbenzoyl)imidazole, 5-Methyl-4-(2'-methylbenzoyl)imidazole] | + |  |  |  |  | inhibition in vivo at 100 mg/kg ([2]; 100 mg/kg p.o. in the rat): 44%
17 | Clc1cccc(Cl)c1Cc1cnc[nH]1 [4-(2',6'-dichlorobenzyl)imidazole, 4-(2',6'-Dichlorobenzyl)imidazole] |  | 48 |  |  |  | selectivity ratio [6]: 1600; ED50 [4]: 0.03 mg/kg; minimal effective dose [3, 8]: 0.03 to 0.1 mg/kg; minimal effective dose [3, 9]: 0.03 to 0.1 mg/kg
18 | CCc1ccccc1Cc1c[nH]cn1 [4-(2'-ethylbenzyl)imidazole, 4-(2'-Ethylbenzyl)imidazole] |  | 34 |  |  |  | selectivity ratio [6]: 6800; ED50 [4]: 0.005 mg/kg; Analgesic activity [7]: +; change in vivo at 1.5 mg/kg [7]: 150%
19 | COc1ccc(C(O)c2c[nH]cn2)cc1 (stereo not drawn) [4-[α-(4'-Methoxyphenyl)]hydroxymethylimidazole] |  |  | + | 1.9 |  | 
20 | Cc1ccc(C(O)c2c[nH]cn2)c(C)c1 (stereo not drawn) [4-[α-(2',4'-Dimethylphenyl)]hydroxymethylimidazole] |  |  | + | 1.3 |  | 
21 | COc1ccccc1C(O)c1c[nH]cn1 (stereo not drawn) [4-[α-(2'-Methoxyphenyl)]hydroxymethylimidazole] | ++ |  | + | 2.5 | 69 | minimal effective dose [3, 8]: 0.3 to 1 mg/kg; minimal effective dose [3, 9]: 1 mg/kg
22 | Cc1ccccc1C(O)c1c[nH]cn1 (stereo not drawn) [4-[α-(2'-Methylphenyl)]hydroxymethylimidazole] | + | 160 | ++ | 0 | 41 | prevention of the formation of ulcers ([4]; 0.5 mg/kg): prevented them partly; prevention of the formation of ulcers ([4]; 5 mg/kg): completely prevented the formation of ulcers; anti-hypertensive effect [3]: no anti-hypertensive effect was found
23 | CCc1ccccc1C(O)c1c[nH]cn1 (stereo not drawn) [4-[α-(2'-Ethylphenyl)]hydroxymethylimidazole] | ++ |  | ++ | 0 | 73 | Analgesic activity [7]: +; change in vivo at 1.5 mg/kg [7]: 300%
24 | COC(c1c[nH]cn1)c1c(C)cccc1C (stereo not drawn) [4-[α-(2',6'-Dimethylphenyl)]methoxymethylimidazole] | + |  | + | 13 | 40 | 
